From patent US5962525A, “6,7-disubstituted-2-aminotetralines active as immunomodulators and pharmaceutical compositions containing same” (Sigma-Tau, priority 1990, dated 1999)
Values joined by “and” are separate entries in the source; they are usually repeats but may differ in a detail not shown here. Equal entries are not always repeated. Where two headings read alike, the source gives them in different places.

Key:
[1] = Tolerability after oral or intravenous administration; parameters: species or system mouse (Swiss albino); conditions: mouse, in vivo, 7 days observation, read-out: Tolerability, dose
Protocol: The test was conducted in male Swiss albino mice weighing 22-24 g.
A group of animals (4 animals/dose) which had been kept fasting for 18 hours, were orally administered the compounds ST 557, ST 563, ST 564 and ST 570 dissolved in twice distilled water.
A further group of animals, which had free access to food and water, were administered intravenously the same compounds dissolved in saline it pH 7. All the animals were kept under observation for 7 days.

[2] = test system: splenocytes; experiment: "In vitro-ex vivo" effect on the mytogen (PHA, LPS)-induced splenocyte proliferation in mice; parameters: species or system mouse (B6 D2 F1); conditions: 25 mg/kg/day i.p.
Protocol: Assessment of the "in vitro-ex vivo" effect of ST 557, ST 563, ST 608 on the mytogen (PHA, LPS)-induced splenocyte proliferation in mice
Male B6 D2 F1 mice aged 6-10 weeks (4 animals per group) were used.
The compounds were administered i.p. 25 mg/kg/day, from day -5 to -1 (spleen excision at day 0).
PHA (active on T lymphocytes) and LPS (active on B lymphocytes) were used as mytogens. Each mytogen was tested at three different concentrations (suboptimal, optimal, superoptimal): 0.5, 4 and 6 mcg/ml/well and 0.5, 150 and 500 mcg/ml/well, respectively.
The experimental procedure was conducted substantially as described by Kirchner et al., "Splenic suppressor macrophages induced in mice by injection of C. parvum", J. Immunol., 1975, 115: 1212.
In particular, the cell suspensions obtained from the spleens of the animals of the same group were pooled and the cell concentration was adjusted to 5×10^6 cells/ml.
To volumes of 0.1 ml of each sample, equal volumes of the mytogen preparations were added so as to obtain, for each mytogen, the previously indicated final concentrations.
Each sample was prepared in triplicate in U-bottom microtiters. A control, to which 0.1 ml of medium were added instead of the mytogen, was also prepared. The control permits the extent of spontaneous proliferation in the absence of stimulation to be assessed.
The samples were incubated at 37° C. for 48 hours and then they were pulsed with 20 μl ^3 H-TdR (25 μCi/ml).
After 18 hours of further incubation, the cells were collected on filters and counted in a beta-counter.
The results of each sample are expressed by calculating the value of the area under the curve (AUC) obtained by plotting the values of the incorporated radioactivity (in cpm) versus the various concentrations of each mytogen.
In addition to AUC, the stimulation index (SI) is also considered, that is defined as follows. [formula]

[3] = test system: splenocytes; experiment: "In vitro-ex vivo" effect on the mytogen (PHA, ConA, LPS)-induced splenocyte proliferation in mice immunodepressed with cyclophosphamide; parameters: species or system mouse (B6 D2 F1); conditions: for S.I. (stimulation index): with respect to the immunodepressed controls; for AUC (area under curve): immunodepressed
Protocol: Assessment of the "in vitro-ex vivo" effect of ST 557, ST 563 ST 564 on the mytogen (PHA, ConA, LPS)-Induced splenocyte proliferation in mice Immunodepressed with cyclotohosphamide
Male B6 D2 F1 mice aged 7-9 weeks (5 mice per group) were used.
The immunosuppressor (cyclophosphamide) was administered i.p. at the dose of 100 mg/kg at day -5. The compounds were administered i.p. (25 mg/kg/day) and per os (100 mg/kg/day) from day -5 to day -1 (spleen excision at day 0).
Splenocyte proliferation was induced by three different mytogens: PHA and ConA active on T-lymphocytes, and LPS active on B-lymphocytes. Each mytogen was tested at three different concentrations (suboptimal, optimal and superoptimal) corresponding to 0.5, 4 and 6 mcg/ml/well for PHA; 0.5, 4 and 8 mcg/ml/well for ConA and 0.5, 150 and 500 mcg/ml/well for LPS.
The experimental procedure is identical to that described in test 4.
The results are expressed as both AUC (see test 4) and S.I. In order to assess the efficacy of the immunosuppressor and the activity of the tested compounds, S.I. has been determined both for the immunodepressed controls (with respect to the normal controls) and for the immunodepressed treated animals (with respect to the immunodepressed controls), respectively. [formula]

SMILES: COc1cc2c(cc1OC)CC(N(CC1CC1)CC1CC1)CC2 (stereo not drawn) [ST 557, 2-[(N,N-dicyclopropylmethyl)amino]-6,7-dimethoxytetraline]
- MTD at 168 h ([1]; iv): > 4 mg/kg
- MTD at 168 h ([1]; po, os, fasting 18 hours): > 20 mg/kg
- AUC (area under curve, incorporated radioactivity vs mytogen concentration) ([2]; LPS): 10312 ± 1253 ×10^-3 and 18914 ± 389 ×10^-3
- S.I. (stimulation index) ([2]; LPS): 1.22 and 1.15
- S.I. (stimulation index) ([2]; PHA): 1.27 and 1.13 and 1.73
- S.I. (stimulation index) ([3]; ConA, 25 mg/kg/day i.p.): 1.50
- S.I. (stimulation index) ([3]; ConA, 100 mg/kg/day os): 0.92
- AUC (area under curve) ([3]; ConA, 25 mg/kg/day i.p.): 763 ± 14 ×10^-3
- AUC (area under curve) ([3]; ConA, 100 mg/kg/day os): 675 ± 21 ×10^-3
- S.I. (stimulation index) ([3]; LPS, 25 mg/kg/day i.p.): 5.85
- S.I. (stimulation index) ([3]; LPS, 100 mg/kg/day os): 0.97
- AUC (area under curve) ([3]; LPS, 25 mg/kg/day i.p.): 6411 ± 214 ×10^-3
- AUC (area under curve) ([3]; LPS, 100 mg/kg/day os): 4485 ± 433 ×10^-3
- S.I. (stimulation index) ([3]; PHA, 25 mg/kg/day i.p.): 1.90
- AUC (area under curve) ([3]; PHA, 25 mg/kg/day i.p.): 191 ± 10 ×10^-3

SMILES: COc1cc2c(cc1OC)CC(NCC(O)c1ccc(C)cc1)CC2 (stereo not drawn) [ST 563, 2-[(N-2-hydroxy-2-(4-methylphenyl)ethyl)amino]-6,7-dimethoxytetraline]
- MTD at 168 h ([1]; iv): > 20 mg/kg
- MTD at 168 h ([1]; po, os, fasting 18 hours): > 50 mg/kg
- S.I. (stimulation index) ([2]; LPS): 1.13 and 0.95
- AUC (area under curve, incorporated radioactivity vs mytogen concentration) ([2]; PHA): 179 ± 3 ×10^-3 and 256 ± 21 ×10^-3 and 139 ± 5 ×10^-3
- S.I. (stimulation index) ([2]; PHA): 1.09 and 1.28 and 1.12
- S.I. (stimulation index) ([3]; ConA, 25 mg/kg/day i.p.): 1.31
- S.I. (stimulation index) ([3]; ConA, 100 mg/kg/day os): 0.84
- AUC (area under curve) ([3]; ConA, 25 mg/kg/day i.p.): 666 ± 16 ×10^-3
- AUC (area under curve) ([3]; ConA, 100 mg/kg/day os): 619 ± 12 ×10^-3
- S.I. (stimulation index) ([3]; LPS, 25 mg/kg/day i.p.): 4.02
- S.I. (stimulation index) ([3]; LPS, 100 mg/kg/day os): 0.41
- AUC (area under curve) ([3]; LPS, 25 mg/kg/day i.p.): 3715 ± 200 ×10^-3
- AUC (area under curve) ([3]; LPS, 100 mg/kg/day os): 3501 ± 360 ×10^-3
- S.I. (stimulation index) ([3]; PHA, 25 mg/kg/day i.p.): 2.17
- AUC (area under curve) ([3]; PHA, 25 mg/kg/day i.p.): 217 ± 14 ×10^-3
